Assay results: US4868321A, “Isothiocyanate intermediates” (FMC Corporation, priority 1988, dated 1989)

Assays:
Format in all cases: in vivo
Johnsongrass [1] = experiment: Postemergence Herbicidal Activity, Johnsongrass; settings: Sorghum halepense, post-emergence; for pest or weed control at 1000 g/ha: 1.0 kg/ha
How it was run: (§1)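 Compounds were applied at rates given in kilograms per hectare, and herbicidal effect was scored as percent control.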

Velvetleaf [2] = experiment: Postemergence Herbicidal Activity, Velvetleaf; settings: Abutilon theophrasti, post-emergence; for pest or weed control at 1000 g/ha: 1.0 kg/ha
How it was run: (§2)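 Applications are made pre- or postemergence from 50/50 acetone/water solutions of each compound. Effect is recorded as % C at the stated kg/ha rate.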

Barnyardgrass [3] = experiment: Postemergence Herbicidal Activity, Barnyardgrass; settings: Echinochloa crus-galli, post-emergence; for pest or weed control at 1000 g/ha: 1.0 kg/ha
How it was run: as §1

Field Corn [4] = experiment: Postemergence Herbicidal Activity, Field Corn; settings: Zea mays, post-emergence; for plant injury at 1000 g/ha: 1.0 kg/ha
How it was run: (§3)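 Herbicidal response was graded as percent control. Compound rates were in kg/ha.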

Johnsongrass [5] = experiment: Preemergence Herbicidal Activity, Johnsongrass; settings: Sorghum halepense, pre-emergence; for pest or weed control at 1000 g/ha: 1.0 kg/ha
How it was run: as §1

Cotton [6] = experiment: Postemergence Herbicidal Activity, Cotton; settings: Gossypium hirsutum, post-emergence; for plant injury at 1000 g/ha: 1.0 kg/ha
How it was run: as §2

Wheat [7] = experiment: Preemergence Herbicidal Activity, Wheat; settings: Triticum aestivum, pre-emergence; for plant injury at 1000 g/ha: 1.0 kg/ha
How it was run: as §3

Field Bindweed [8] = experiment: Preemergence Herbicidal Activity, Field Bindweed; settings: pre-emergence; for pest or weed control at 1000 g/ha: 1.0 kg/ha
How it was run: as §2

Morningglory [9] = experiment: Postemergence Herbicidal Activity, Morningglory; settings: Ipomoea, post-emergence; for pest or weed control at 1000 g/ha: 1.0 kg/ha
How it was run: as §2

Field Corn [10] = experiment: Preemergence Herbicidal Activity, Field Corn; settings: Zea mays, pre-emergence; for plant injury at 1000 g/ha: 1.0 kg/ha
How it was run: as §3

Morningglory [11] = experiment: Preemergence Herbicidal Activity, Morningglory; settings: Ipomoea, pre-emergence; for pest or weed control at 1000 g/ha: 1.0 kg/ha
How it was run: as §2

Rice [12] = experiment: Postemergence Herbicidal Activity, Rice; settings: Oryza sativa, post-emergence; for plant injury at 1000 g/ha: 1.0 kg/ha
How it was run: as §3

Green Foxtail [13] = experiment: Preemergence Herbicidal Activity, Green Foxtail; settings: Setaria viridis, pre-emergence; for pest or weed control at 1000 g/ha: 1.0 kg/ha
How it was run: as §1

Rice [14] = experiment: Preemergence Herbicidal Activity, Rice; settings: Oryza sativa, pre-emergence; for plant injury at 1000 g/ha: 1.0 kg/ha
How it was run: as §3

Velvetleaf [15] = experiment: Preemergence Herbicidal Activity, Velvetleaf; settings: Abutilon theophrasti, pre-emergence; for pest or weed control at 1000 g/ha: 1.0 kg/ha
How it was run: as §2

Soybean [16] = experiment: Postemergence Herbicidal Activity, Soybean; settings: Glycine max, post-emergence; for plant injury at 1000 g/ha: 1.0 kg/ha
How it was run: as §3

Barnyardgrass [17] = experiment: Preemergence Herbicidal Activity, Barnyardgrass; settings: Echinochloa crus-galli, pre-emergence; for pest or weed control at 1000 g/ha: 1.0 kg/ha
How it was run: as §1

Green Foxtail [18] = experiment: Postemergence Herbicidal Activity, Green Foxtail; settings: Setaria viridis, post-emergence; for pest or weed control at 1000 g/ha: 1.0 kg/ha
How it was run: as §1

Field Bindweed [19] = experiment: Postemergence Herbicidal Activity, Field Bindweed; settings: post-emergence; for pest or weed control at 1000 g/ha: 1.0 kg/ha
How it was run: as §2

Soybean [20] = experiment: Preemergence Herbicidal Activity, Soybean; settings: Glycine max, pre-emergence; for plant injury at 1000 g/ha: 1.0 kg/ha
How it was run: as §3

Wheat [21] = experiment: Postemergence Herbicidal Activity, Wheat; settings: Triticum aestivum, post-emergence; for plant injury at 1000 g/ha: 1.0 kg/ha
How it was run: as §3

Cotton [22] = experiment: Preemergence Herbicidal Activity, Cotton; settings: Gossypium hirsutum, pre-emergence; for plant injury at 1000 g/ha: 1.0 kg/ha
How it was run: as §2

SMILES: CS(=O)(=O)N(c1cc(-n2nnn(CCCF)c2=O)c(F)cc1Br)S(C)(=O)=O [Compound 10, 1-(4-bromo-2-fluoro-5-[bis(N--methylsulfonyl)amino]phenyl]-1,4-dihydro-4-(3-fluoropropyl)-5H--tetrazol-5-one]
- pest or weed control at 1000 g/ha (Johnsongrass [1]): 100%
- pest or weed control at 1000 g/ha (Velvetleaf [2]): 100%
- pest or weed control at 1000 g/ha (Barnyardgrass [3]): 100%
- plant injury at 1000 g/ha (Field Corn [4]): 90%
- pest or weed control at 1000 g/ha (Johnsongrass [5]): 95%
- plant injury at 1000 g/ha (Cotton [6]): 100%
- plant injury at 1000 g/ha (Wheat [7]): 90%
- pest or weed control at 1000 g/ha (Field Bindweed [8]): 100%
- pest or weed control at 1000 g/ha (Morningglory [9]): 100%
- plant injury at 1000 g/ha (Field Corn [10]): 95%
- pest or weed control at 1000 g/ha (Morningglory [11]): 100%
- plant injury at 1000 g/ha (Rice [12]): 30%
- pest or weed control at 1000 g/ha (Green Foxtail [13]): 100%
- plant injury at 1000 g/ha (Rice [14]): 95%
- pest or weed control at 1000 g/ha (Velvetleaf [15]): 100%
- plant injury at 1000 g/ha (Soybean [16]): 95%
- pest or weed control at 1000 g/ha (Barnyardgrass [17]): 100%
- pest or weed control at 1000 g/ha (Green Foxtail [18]): 100%
- pest or weed control at 1000 g/ha (Field Bindweed [19]): 100%
- plant injury at 1000 g/ha (Soybean [20]): 80%
- plant injury at 1000 g/ha (Wheat [21]): 60%
- plant injury at 1000 g/ha (Cotton [22]): 100%

SMILES: CCCS(=O)(=O)N(c1cc(-n2nnn(CCCF)c2=O)c(F)cc1Br)S(=O)(=O)CCC [Compound 27]
- pest or weed control at 1000 g/ha (Johnsongrass [1]): 100%
- pest or weed control at 1000 g/ha (Velvetleaf [2]): 100%
- pest or weed control at 1000 g/ha (Barnyardgrass [3]): 100%
- plant injury at 1000 g/ha (Field Corn [4]): 95%
- pest or weed control at 1000 g/ha (Johnsongrass [5]): 95%
- plant injury at 1000 g/ha (Cotton [6]): 100%
- plant injury at 1000 g/ha (Wheat [7]): 60%
- pest or weed control at 1000 g/ha (Field Bindweed [8]): 100%
- pest or weed control at 1000 g/ha (Morningglory [9]): 100%
- plant injury at 1000 g/ha (Field Corn [10]): 95%
- pest or weed control at 1000 g/ha (Morningglory [11]): 100%
- plant injury at 1000 g/ha (Rice [12]): 30%
- pest or weed control at 1000 g/ha (Green Foxtail [13]): 100%
- plant injury at 1000 g/ha (Rice [14]): 60%
- pest or weed control at 1000 g/ha (Velvetleaf [15]): 100%
- plant injury at 1000 g/ha (Soybean [16]): 90%
- pest or weed control at 1000 g/ha (Barnyardgrass [17]): 100%
- pest or weed control at 1000 g/ha (Green Foxtail [18]): 100%
- pest or weed control at 1000 g/ha (Field Bindweed [19]): 95%
- plant injury at 1000 g/ha (Soybean [20]): 30%
- plant injury at 1000 g/ha (Wheat [21]): 80%
- plant injury at 1000 g/ha (Cotton [22]): 95%

SMILES: CS(=O)(=O)Nc1cc(-n2nnn(CCCF)c2=O)c(F)cc1Cl [Compound 2, 1-[4-chloro-2-fluoro-5-(N--methylsulfonylamino)phenyl]-1,4-dihydro-4-(3-fluoropropyl)-5H--tetrazol-5-one]
- pest or weed control at 250 g/ha (Johnsongrass [1]; 0.25 kg/ha): 50%
- pest or weed control at 250 g/ha (Velvetleaf [2]; 0.25 kg/ha): 100%
- pest or weed control at 250 g/ha (Barnyardgrass [3]; 0.25 kg/ha): 40%
- plant injury at 250 g/ha (Field Corn [4]; 0.25 kg/ha): 80%
- pest or weed control at 250 g/ha (Johnsongrass [5]; 0.25 kg/ha): 40%
- plant injury at 250 g/ha (Cotton [6]; 0.25 kg/ha): 100%
- plant injury at 250 g/ha (Wheat [7]; 0.25 kg/ha): 10%
- pest or weed control at 250 g/ha (Field Bindweed [8]; 0.25 kg/ha): 100%
- pest or weed control at 250 g/ha (Morningglory [9]; 0.25 kg/ha): 100%
- plant injury at 250 g/ha (Field Corn [10]; 0.25 kg/ha): 40%
- pest or weed control at 250 g/ha (Morningglory [11]; 0.25 kg/ha): 100%
- plant injury at 250 g/ha (Rice [12]; 0.25 kg/ha): 50%
- pest or weed control at 250 g/ha (Green Foxtail [13]; 0.25 kg/ha): 40%
- plant injury at 250 g/ha (Rice [14]; 0.25 kg/ha): 70%
- pest or weed control at 250 g/ha (Velvetleaf [15]; 0.25 kg/ha): 100%
- plant injury at 250 g/ha (Soybean [16]; 0.25 kg/ha): 50%
- pest or weed control at 250 g/ha (Barnyardgrass [17]; 0.25 kg/ha): 60%
- pest or weed control at 250 g/ha (Green Foxtail [18]; 0.25 kg/ha): 50%
- pest or weed control at 250 g/ha (Field Bindweed [19]; 0.25 kg/ha): 100%
- plant injury at 250 g/ha (Soybean [20]; 0.25 kg/ha): 20%
- plant injury at 250 g/ha (Wheat [21]; 0.25 kg/ha): 20%
- plant injury at 250 g/ha (Cotton [22]; 0.25 kg/ha): 95%
